Laboratory results: patent US5362747A, “2-nitroaryl and 2-cyanoaryl compounds as regulators of nitric oxide synthase” (Abbott Laboratories, priority 1993, dated 1994)

How the values were obtained:
Type I (rat brain) NOS = target: T1, Type I (rat brain) NOS (Rattus norvegicus, UniProt P29476); assay: [3H]-arginine to [3H]-citrulline conversion, Type I (rat brain) NOS; format: biochemical; details: rat brain cerebellum NOS, 25° C.; for inhibition at 100 µM: read-out: Type I % inhib. @ 100 μM
T1 construct: isolated from rat brain cerebellum cells partially purified on a phosphocellulose column; from tissue; host or cells: rat brain cerebellum, partially purified on phosphocellulose
T1 sequence (P29476 whole entry): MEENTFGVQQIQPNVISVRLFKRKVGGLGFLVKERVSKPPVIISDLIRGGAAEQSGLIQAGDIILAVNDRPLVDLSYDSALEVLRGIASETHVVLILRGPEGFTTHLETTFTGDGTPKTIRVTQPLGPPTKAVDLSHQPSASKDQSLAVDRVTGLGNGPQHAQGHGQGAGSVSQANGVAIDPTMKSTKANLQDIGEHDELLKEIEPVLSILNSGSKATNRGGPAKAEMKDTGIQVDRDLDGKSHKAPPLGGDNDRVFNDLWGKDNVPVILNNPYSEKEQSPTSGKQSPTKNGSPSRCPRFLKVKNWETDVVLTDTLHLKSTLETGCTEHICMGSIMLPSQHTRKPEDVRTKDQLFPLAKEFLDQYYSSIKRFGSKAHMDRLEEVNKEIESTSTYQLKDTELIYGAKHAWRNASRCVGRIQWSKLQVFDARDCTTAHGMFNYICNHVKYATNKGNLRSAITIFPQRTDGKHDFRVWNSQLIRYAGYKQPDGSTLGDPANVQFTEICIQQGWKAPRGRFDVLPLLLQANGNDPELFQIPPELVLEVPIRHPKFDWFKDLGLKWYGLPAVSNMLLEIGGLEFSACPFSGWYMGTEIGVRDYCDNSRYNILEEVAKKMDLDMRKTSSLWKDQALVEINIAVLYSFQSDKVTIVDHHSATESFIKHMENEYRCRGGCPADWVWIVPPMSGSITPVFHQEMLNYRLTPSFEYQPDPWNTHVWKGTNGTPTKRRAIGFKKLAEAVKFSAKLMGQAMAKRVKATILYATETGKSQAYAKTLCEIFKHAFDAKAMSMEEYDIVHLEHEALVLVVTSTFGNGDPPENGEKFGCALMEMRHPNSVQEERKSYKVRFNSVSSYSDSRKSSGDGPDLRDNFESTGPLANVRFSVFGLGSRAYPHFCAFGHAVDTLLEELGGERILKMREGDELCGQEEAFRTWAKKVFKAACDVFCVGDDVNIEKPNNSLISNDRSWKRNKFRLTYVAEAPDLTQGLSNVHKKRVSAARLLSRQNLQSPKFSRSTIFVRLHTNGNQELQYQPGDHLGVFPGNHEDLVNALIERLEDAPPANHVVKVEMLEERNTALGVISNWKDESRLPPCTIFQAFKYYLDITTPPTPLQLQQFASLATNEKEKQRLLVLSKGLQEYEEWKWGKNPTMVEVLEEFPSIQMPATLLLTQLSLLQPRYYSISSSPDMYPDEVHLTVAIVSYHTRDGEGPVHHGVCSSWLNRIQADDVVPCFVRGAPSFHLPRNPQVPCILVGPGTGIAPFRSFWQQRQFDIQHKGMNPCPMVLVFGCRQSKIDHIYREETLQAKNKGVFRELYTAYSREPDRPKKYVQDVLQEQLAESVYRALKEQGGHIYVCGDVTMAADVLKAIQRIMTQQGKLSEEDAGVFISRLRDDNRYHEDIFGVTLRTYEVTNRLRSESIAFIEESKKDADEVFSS
Experimental: Briefly, samples of partially purified NO synthase, 50-100 mg of partially purified NO synthase or, alternately, 20 mL of a cytosolic preparation of NO synthase. The type 1 isoform of NO synthase was isolated from rat brain cerebellum cells partially purified on a phosphocellulose column. […] The reaction was stopped by adding 1 mL of stop buffer (2 mM EGTA, 2 mM EDTA, 20 mM HEPES, pH 5.5). The total volume was then applied to a 1 mL Dowex AG 50WX-8 column (Na^+ form, BioRad) that had been pre-equilibrated with the stop buffer. L-[2,3-^3 H]Citrulline was eluted (2×) with 0.5 mL of stop buffer and radioactivity was determined by liquid scintillation counting.

Type II (macrophage) NOS = target: T2, Type II (macrophage) NOS (Mus musculus, UniProt P29477); assay: [3H]-arginine to [3H]-citrulline conversion, Type II (macrophage) NOS; format: biochemical, murine; details: cytosolic NOS from LPS-induced RAW 264.7 cells, 25° C.; for inhibition at 100 µM: read-out: Type II % inhib. @ 100 μM
T2 construct: cytosolic preparations of NO synthase (type II isoform) were prepared from RAW 264.7 cells; endogenous in cells; host or cells: RAW 264.7 cells, induced 16 hours with lipopolysaccharide; cytosolic preparation
T2 sequence (P29477 whole entry, canonical isoform): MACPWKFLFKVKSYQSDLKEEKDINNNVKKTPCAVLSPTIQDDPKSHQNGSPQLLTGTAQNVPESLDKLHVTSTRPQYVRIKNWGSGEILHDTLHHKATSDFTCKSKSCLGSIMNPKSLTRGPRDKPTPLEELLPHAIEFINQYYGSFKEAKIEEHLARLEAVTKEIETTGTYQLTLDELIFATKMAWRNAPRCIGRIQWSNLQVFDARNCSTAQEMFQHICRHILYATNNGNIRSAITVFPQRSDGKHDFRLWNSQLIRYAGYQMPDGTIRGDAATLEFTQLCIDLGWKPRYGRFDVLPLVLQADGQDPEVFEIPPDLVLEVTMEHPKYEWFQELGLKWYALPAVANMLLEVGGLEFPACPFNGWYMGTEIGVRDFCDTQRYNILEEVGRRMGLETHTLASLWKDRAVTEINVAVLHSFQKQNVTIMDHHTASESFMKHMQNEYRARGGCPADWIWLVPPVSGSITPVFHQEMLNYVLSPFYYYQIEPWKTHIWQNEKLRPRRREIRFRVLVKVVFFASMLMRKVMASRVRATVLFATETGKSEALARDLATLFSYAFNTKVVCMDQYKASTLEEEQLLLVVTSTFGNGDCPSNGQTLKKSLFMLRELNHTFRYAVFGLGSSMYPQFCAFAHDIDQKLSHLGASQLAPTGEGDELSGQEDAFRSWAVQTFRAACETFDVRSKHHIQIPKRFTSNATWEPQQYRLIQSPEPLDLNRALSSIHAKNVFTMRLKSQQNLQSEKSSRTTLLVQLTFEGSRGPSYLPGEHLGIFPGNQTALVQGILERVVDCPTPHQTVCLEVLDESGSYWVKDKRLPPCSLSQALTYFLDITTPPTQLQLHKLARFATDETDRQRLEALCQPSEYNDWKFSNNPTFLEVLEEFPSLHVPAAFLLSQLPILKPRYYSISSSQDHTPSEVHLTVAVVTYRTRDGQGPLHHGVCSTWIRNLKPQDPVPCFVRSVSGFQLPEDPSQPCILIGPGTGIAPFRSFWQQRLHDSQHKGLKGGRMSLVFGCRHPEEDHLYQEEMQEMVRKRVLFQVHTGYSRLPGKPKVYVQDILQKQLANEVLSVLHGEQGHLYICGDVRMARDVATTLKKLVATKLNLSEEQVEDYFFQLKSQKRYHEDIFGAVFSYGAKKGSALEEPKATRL
From the text: The enzyme NO synthase produces EDRF/NO and citrulline from L-arginine (Bredt and Snyder, Proc. Nat'l Acad Sci USA, 1989, 87: 682-5). The enzymatic generation of EDRF/NO is monitored by measuring the conversion of [^3 H]-L-arginine to [^3 H]-L-citrulline. An inhibitor of this specific enzymatic reaction lowers the conversion rate and, thus, the amount of [^3 H]-L-citrulline produced. Likewise, a compound acting as a substrate would compete with L-arginine and thereby lower the conversion rate.
The conversion of L-arginine to L-citrulline was assayed as reported previously (Bredt and Snyder, Proc. Nat'l Acad Sci USA, 1989, 87: 682-5) with minor modifications. Briefly, samples of partially purified NO synthase, […] of partially purified NO synthase or, alternately, […] of a cytosolic preparation of NO synthase. The type 1 isoform of NO synthase was isolated from rat brain cerebellum cells partially purified on a phosphocellulose column. The cytosolic preparations of NO synthase (type II isoform) were prepared from RAW 264.7 cells (a murine monocyte-macrophage cell line), induced for 16 hours with […] medium of lipopolysaccharide (LPS). Another enzyme isoform (type III)is known to be present in bovine endothelial cells (BAE cells), and can be utilized if an additional assay is desired. The samples of enzyme were incubated for 20 minutes (3 minutes in the cases of purified enzyme preparations) at 25° C. in the presence of […] L-[2,3-^3 H]arginine (55 Ci /mmol) (containing 34 nM (0.2 mCi)), 1 mM NADPH, 100 nM calmodulin, 2 mM CaCl2, and with varying concentrations of inhibitors, in a final volume of […]. The reaction was stopped by adding 1 mL of stop buffer (2 mM EGTA, 2 mM EDTA, 20 mM HEPES, pH 5.5). The total volume was then applied to a 1 mL Dowex AG 50WX-8 column (Na^+ form, BioRad) that had been pre-equilibrated with the stop buffer. L-[2,3-^3 H]Citrulline was eluted (2×) with 0.5 mL of stop buffer and radioactivity was determined by liquid scintillation counting. The L-[2,3-^3 H]arginine (Dupont, NEN) was purified prior to use on Dowex AG-1-X8 (CH3 CO2 -- form, Bio-Rad), eluted with distilled water, acidified, concentrated on a Speed-Vac (Savant) and stored at -20° C.

NO synthase enzyme = details: cited from earlier work
EDRF (NO) production = details: cited from earlier work
bovine coronary artery = details: cited from earlier work

Row | Molecule | inhibition at 100 µM (Type I (rat brain) NOS) [%] | IC50 (Type I (rat brain) NOS) [µM] | inhibition at 100 µM (Type II (macrophage) NOS) [%] | IC50 (Type II (macrophage) NOS) [µM] | substrate for the NO synthase enzyme (NO synthase enzyme) | EDRF (NO) production (EDRF (NO) production) | cGMP accumulation (bovine coronary artery; accompanying relaxation of bovine coronary artery) | relaxation of bovine coronary artery (bovine coronary artery)
1 | N#Cc1ccccc1NCCC[C@H](N)C(=O)O [Example 11, (2S)-2-amino-5-(2-cyanophenylamino)pentanoic acid] | 6 | > 100 | 50 | 100 | – | – | – | –
2 | Cc1ccc([N+](=O)[O-])c(NCCCC(N)CO)c1 (centres unmarked) [Example 4, 2-amino-5-(5-methyl-2-nitrophenylamino)-1-pentanol] | 94 | 3 | 99 | 2.5 | – | – | – | –
3 | N-hydroxyarginine | – | – | – | – | substrate | – | – | –
4 | CNC(=N)NCCCC(N)C(=O)O (centres unmarked) [N^G -methylarginine] | – | – | – | – | – | inhibited | – | –
5 | N[C@@H](CCCNc1c(Cl)cccc1[N+](=O)[O-])C(=O)O [Example 6, (2S)-2-amino-5-(2-chloro-6-nitrophenylamino)pentanoic acid] | 55 | 100 | 11 | > 100 | – | – | – | –
6 | Cc1ccc([N+](=O)[O-])c(NCCC[C@H](N)C(=O)O)c1 [Example 2, (2S)-2-amino-5-(5-methyl-2-nitrophenylamino)pentanoic acid] | 88 | 4 | 88 | 10 | – | – | – | –
7 | COc1ccc([N+](=O)[O-])c(NCCC[C@H](N)C(=O)O)c1 [Example 5, (2S)-2-amino-5-(5-methoxy-2-nitrophenylamino)pentanoic acid] | 68 | 20 | 46 | 100 | – | – | – | –
8 | nitric oxide [nitric oxide (NO)] | – | – | – | – | – | – | cGMP accumulation | potent and transient relaxation
9 | Cc1ccc([N+](=O)[O-])c(NCCCC[C@H](N)C(=O)O)c1 [Example 7, (2S)-2-amino-6-(2-nitro-5-methylphenylamino)hexanoic acid] | 91 | 40 | – | > 100 | – | – | – | –
10 | Cc1ccc([N+](=O)[O-])c(SCCC[C@H](N)C(=O)O)c1 [Example 8, 2(S)-amino-5-(5-methyl-2-nitrophenylthioxy)pentanoic acid] | 97 | 1 | 95 | 9 | – | – | – | –
11 | N=C(NCCC[C@H](N)C(=O)O)N[N+](=O)[O-] [NNLA, NNitro-L-arginine, reference compound] | 95 | – | 94 | 7 | – | – | – | –
12 | Cc1ccc([N+](=O)[O-])c(NCCC[C@@H](N)C(=O)O)c1 [Example 10, (2R)-2-amino-5-(5-methyl-2-nitrophenylamino)pentanoic acid] | 58 | 70 | 45 | 100 | – | – | – | –
13 | Cc1ccc([N+](=O)[O-])c(NC/C=C/[C@H](N)CO)c1 [Example 3, (2S)-2-amino-5-(5-methyl-2-nitrophenylamino)-pent-3E-en-1-ol] | 99 | 3 | – | 10 | – | – | – | –
